Values after ≈ are worked out from the molar mass of the structure shown.
How the values were obtained:
Assay type in all cases: physicochemical
[1] = Solubility in solutions of dehydrated alcohol and POE castor oil; conditions: Dehydrated Alcohol 7.50% v/v, POE Castor Oil 4% v/v
Protocol: However, this solution cannot be injected directly into patients as the non-aqueous components exceed 20%, thus potentially causing irritation at the injection site. […] It has been shown that the precipitation can be avoided by inclusion of a co-solvent such as polyoxyethylated (POE) castor oil in the formulation. Subsequently, solubility of the drug substance was determined in solutions containing various amounts of dehydrated alcohol and POE castor oil. Approximately 20 mg of drug was added to 3 mL aliquots of the solutions shown below in Table III. Samples were stirred for 16 hours, filtered trough 0.45 micron nylon syringe filters and analyzed by HPLC for drug concentration.

[2] = Stability of antioxidant formulation at 25° C. for 4 months; conditions: for Appearance / Potency / pH: formulation with 0.1% each of three antioxidants
Protocol: A formulation containing 1.5 mg/mL of Compound 1a, 0.075 mL/mL of ethanol, 0.04 mL/mL of POE castor oil in a tartrate buffer and containing 0.1% each of sodium formaldehyde sulfoxylate, L-cysteine HCl and ascorbic acid was prepared. Samples were placed on stability at 25° C. for 4 months. […] Additionally, there were no changes in potency or total oxidative degradants for the samples.

[3] = Effect of pH on stability, 75% v/v ethanol:0.01M tartrate buffer; conditions: 18 days at 50° C.
Protocol: (§1) The effect of pH on the drug substance stability was also studied. The buffer pH providing maximum stability was determined by comparing the stability of prototype formulations of the drug substance. […] Relative area percents of drug peaks were evaluated following 2 days storage at 85° C. […] Subsequent experiments evaluated stability (1 mg drug/mL) in 75% v/v ethanol:0.01M tartrate buffer. Three mL aliquots of samples were dispensed into 5 cc Type I glass vials and closed with West 4405/50 20 mm stoppers. Percent drug substance remaining, impurities and degradants were evaluated following 18 days storage at 50° C. and compared to initial values.

[4] = Intrinsic aqueous solubility; conditions: desirable physiological pH range
From the text: Therefore, it was necessary to formulate the compound in such a way to get the desired solubility at a physiological pH and maintain stability prior to administration.

[5] = Stability in solution containing ethanol and POE castor oil at 50° C.
From the text: However, as shown below in Table IV, drug degradation occurs in a solution containing ethanol and POE castor oil due to peroxide impurities present in POE castor oil. […] As shown below, the stability of the solution containing POE castor oil was much lower than the injection solution without the co-solvent.

[6] = Dilution of 15 mg/mL ethanol/tartrate solution with aqueous diluents; conditions: 15 mg/mL in 75% ethanol/10 mM tartrate buffer diluted with 0.9% sodium chloride injection or 5% dextrose injection
[7] = Effect of pH on stability, 16.7% v/v ethanol:0.1M citrate buffers; conditions: 0.2 mg drug/mL, 2 days at 85° C.
Protocol: as §1

[8] = during 4 months of storage at 25° C.

**Q.** Which results are given for CSCO[C@H]1C[C@H]2OC[C@@]2(OC(C)=O)[C@H]2[C@H](OC(=O)c3ccccc3)[C@]3(O)C[C@H](OC(=O)[C@H](O)[C@@H](NC(=O)c4ccccc4)c4ccccc4)C(C)=C([C@@H](OC(C)=O)C(=O)[C@]12C)C3(C)C [Compound Ia, 7-O-methylthiomethylpaclitaxel]?
**A.** Solubility [1]: 2380 µg/mL (≈ 2600 µM); changes in appearance or pH [2, 8]: no significant changes; changes in potency or total oxidative degradants [2, 8]: no changes; Appearance ([2]; 2 Month at 25° C.): Clear, colorless; Potency ([2]; 2 Month at 25° C.): 1460 µg/mL (≈ 1600 µM); pH ([2]; 2 Month at 25° C.): 3.56; Appearance ([2]; 4 Month at 25° C.): Clear, colorless; Potency ([2]; 4 Month at 25° C.): 1480 µg/mL (≈ 1620 µM); pH ([2]; 4 Month at 25° C.): 3.57; Appearance ([2]; Initial): Clear, colorless; Potency ([2]; Initial): 1440 µg/mL (≈ 1580 µM); pH ([2]; Initial): 3.71; apparent pH of most stable solution [3]: 5.4; tartrate buffer pH of most stable solution [3]: 3.8; ionization [4]: does not ionize; Total Impurities ([5]; 6 days @ 50° C.): 10.9 area %; Total Impurities ([5]; 16 days @ 50° C.): 16.5 area %; Total Impurities ([5]; Initial): 2.1 area %; effect of aqueous dilution [6]: drug precipitation; buffer pH of best stability [7]: 4.5
